In PMC5059489, “Mechanistic evaluation and transcriptional signature of a glutathione S-transferase omega 1 inhibitor” (Nature Communications, 2016):
Values joined by “and” are separate entries in the source; they are usually repeats but may differ in a detail not shown here. Identical values can stand only once.

Legend:
[1] = target: T1, GSTO1 (Homo sapiens, UniProt P78417); experiment: In-gel fluorescence competitive CMFDA binding assay, recombinant GSTO1; details: inhibition of CMFDA binding
T1 sequence (P78417 1-241): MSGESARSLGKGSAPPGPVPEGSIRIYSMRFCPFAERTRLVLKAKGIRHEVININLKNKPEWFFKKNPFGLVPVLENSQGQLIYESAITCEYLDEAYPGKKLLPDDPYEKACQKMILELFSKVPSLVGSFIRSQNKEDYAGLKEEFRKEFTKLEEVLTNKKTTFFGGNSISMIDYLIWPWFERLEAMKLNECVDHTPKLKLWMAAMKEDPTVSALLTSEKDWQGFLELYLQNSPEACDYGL
Description: (§1) Primary screening of GSTO inhibitors was based on competitive inhibition of CMFDA binding to endogenous GSTO. Briefly, HCT116^p53+/+ cells (4 × 10^4 per well) were coated in a 12-well plate. […] Cells were then washed with PBS and lysed using Cell Lytic M buffer (Sigma). […] Gels were immediately scanned on a Typhoon variable mode imager (Amersham Bioscience). Quantification of fluorescent band intensity was done using Image Quant 5.2 software.

[2] = test system: HCT116p53+/+ cell; experiment: MTT cell proliferation at single concentration; type: cell-based, human
Description: Cell proliferation was assessed by a MTT assay. Cancer cells were seeded in 96-well microtitre plates and, after overnight attachment, treated with GSTO1 inhibitors. After 72 h, MTT solution (3 mg ml^−1; 20 μl) was added to each well and cells were incubated for 3 h at 37 °C. After incubation, media from each well was removed and the dark blue formazan crystals formed by live cells were dissolved in DMSO (150 μl per well). The absorbance intensity was measured at 570 nm on a microplate reader (Molecular Devices, Sunnyvale, CA, USA). Cell viability after 24 h treatment was assessed using ApoTox-Glo triplex assay (Promega) according to the manufacturer's protocol. At least three independent dose–response experiments with each concentration tested in triplicate were performed for each cell line.

[3] = target: T2, endogenous GSTO1 (Homo sapiens, UniProt P78417); experiment: In-gel fluorescence competitive CMFDA binding assay, endogenous GSTO1 in HCT116; details: 10 µM; inhibition of CMFDA binding, HCT116
T2 sequence (P78417 1-241): T1 sequence (P78417 1-241)
Description: as §1

[4] = target: T1, GSTO1; experiment: GSTO1 substrate assay (reduction of 4-NPG); details: for IC50: read-out: GSTO substrate assay IC50, cluster screening tables
Description: For activity screening, we adapted a GSTO1 substrate assay that relies on the quantification of the reduction of S-(4-nitrophenacyl)glutathione (4-NPG), a GSTO1-specific substrate[17], using recombinant human GSTO1 in a high-throughput screening format.
Enzyme activity was measured by monitoring the reduction of 4-NPG to 4-nitroacetophenone by GSTO1.

SMILES	GSTO binding assay (% Inhibition at 10 µM) Recombinant [1] [%]	% Inhibition of HCT116p53+/+ cell proliferation at 10 µM [2]	GSTO binding assay (% Inhibition at 10 µM) Endogenous [3] [%]	GSTO substrate assay % Inhibition at 10 µM [4] [%]	IC50 [4] [nM]
O=C(CCl)Nc1nc2cc3c(cc2s1)OCCO3 [C2-27]	69.0	42.6% and 38.2%	59.6	85.1	8670
Cc1sc2ncn(NC(=O)CCl)c(=O)c2c1C [C2-30]	50.5	12.0%	41.1	47.4	
CCN(CC)S(=O)(=O)c1ccc(CNC(=O)CCl)cc1 [C3-2]	63.3	55.3% and 49.6%	63.6	86.4	1480
CCOc1cc2c(cc1CNC(=O)CCl)OC(C)C2 (centres unmarked) [C3-5]	14.7	64.1% and 63.6%	31.8	85.1	
CC(NC(=O)CCl)c1ccc2c(c1)OCO2 (centres unmarked) [C3-7]	12.3	73.6%	12.6	12.5	
CC(C)C(NC(=O)CCl)c1ccc2c(c1)OCCO2 (centres unmarked) [C3-8]	-4.9	91.2% and 77.9%	33.4	16.5	
O=C(CCl)NCC1COc2ccccc2O1 (centres unmarked) [C3-9]	30.7	24.9%	53.9	80.7	
Cn1ccnc1C(NC(=O)CCl)c1ccccc1 (centres unmarked) [C3-10]	29.4	96.5% and 87.4%	48.4	78.4	
COc1cc(CCNC(=O)CCl)ccc1OC(F)F [C3-11]	10.1	8.1% and 16.1%	45.6	9.8	
CN(C)C(CNC(=O)CCl)c1ccccc1 (centres unmarked) [C3-12]	22.0	5%	9.7	83.2	
O=C(CCl)NCCCSc1ccccc1 [C3-14]	38.8	28.5%	56.4	78.4	
CN(CCCNC(=O)CCl)c1ccccc1 [C3-16]	23.7	28.7%	45.4	83.1	
O=C(CCl)NNc1c(Cl)cc(Cl)cc1Cl [C3-17]	57.6	7.4%	39.3	61.9	
CC(C)(C)c1ccc(C(=O)NNC(=O)CCl)cc1 [C3-20]	3.9	29.1%	32.9	42.7	
O=C(CCl)NNC(=O)c1ccc(Br)cc1 [C3-21]	58.4	9.9%	27.6	81.3	
O=C(CCl)NNC(=O)c1cc2c(s1)CCCC2 [C3-23]	-4.1	3.7%	-11.7	-3.5	
O=C(CCl)NCC(=O)Nc1ccc(F)c(F)c1 [C3-25]	36.2	64.5% and 67.8%	57.1	82.4	

SMILES	GSTO binding assay (% Inhibition at 10 µM) Recombinant [1] [%]	% Inhibition of HCT116p53+/+ cell proliferation at 10 µM [2]	GSTO binding assay (% Inhibition at 10 µM) Endogenous [3] [%]	GSTO substrate assay % Inhibition at 10 µM [4] [%]	IC50 [4] [nM]
CC(C)C(NC(=O)CCl)c1cccs1 (centres unmarked) [C3-28]	15.1	48.5% and 48.7%	44.1	42.0	
CC(NC(=O)CCl)c1cc2ccccc2o1 (centres unmarked) [C3-29]	46.7	89.7%	88.9	73.0	
CC(NC(=O)CCl)C12CC3CC(CC(C3)C1)C2 (centres unmarked) [C3-33]	16.6	24.7% and 38.5%	55.3	36.3	
O=C(CCl)NCCC12CC3CC(CC(C3)C1)C2 [C3-34]	50.9	-2.4%	41.7	78.6	
O=C(CCl)N(CC(F)(F)F)c1ccc(Cl)cc1 [C4-1]	40.4	76.2% and 81.4%	58.5	73.0	3800
N#CCCN(C(=O)CCl)c1cccc(C(F)(F)F)c1 [C4-2]	53.2	84.1% and 93.6%	52.8	78.6	1070
C=CCN(C(=O)CCl)c1nc(-c2ccc(Cl)c(Cl)c2)cs1 [C4-5]	-8.2	9.9% and 16.9%	15.9	5.0	
COc1ccc2cc(CN(C)C(=O)CCl)ccc2c1 [C4-6]	55.2	44.1% and 68.5%	49.5	29.3	
CN(CC(=O)Nc1c(Cl)cccc1Cl)C(=O)CCl [C4-7]	-36.4	81.8%	53.0	1.8	
CN(CC1COc2ccccc2O1)C(=O)CCl (centres unmarked) [C4-8]	59.5	70.7%	53.0	97.2	237
CN(Cc1cnn(-c2ccccc2)c1)C(=O)CCl [C4-10]	66.4	82.1%	53.1	99.5	1950
CCN(Cc1ccc2c(c1)OCO2)C(=O)CCl [C4-11]	60.0	2.8%	51.8	103.4	2360
CN(CC(=O)N1CCOCC1)C(=O)CCl [C4-12]	-4.7	91.1% and 92.6%	-29.3	81.7	
CCN(CC(=O)NC1CCS(=O)(=O)C1)C(=O)CCl (centres unmarked) [C4-13]	5.1	62.3% and 67.3%	7.3	27.2	
NC(=O)CCN(Cc1ccccc1)C(=O)CCl [C4-14]	45.2	70.3% and 75%	56.8	89.1	
O=C(CCl)N(Cc1ccccc1)Cc1ccco1 [C4-15]	65.8	-6.8% and -5.5%	34.0	98.2	
Cc1cccc2sc(N(Cc3ccccc3)C(=O)CCl)nc12 [C4-16]	66.3	86.3% and 89.8%	30.0	32.6	
